Patent publication US20160128321A1, “Ladder-Frame Polyether Conjugates” (priority 2010, published 2016)
Read-outs that look alike come from different tables or passages of the source.

What was measured:
[1] = test system: MCF7; set-up: key to the marks not given beside the values
[2] = test system: CHO-K1
[3] = test system: NL20; set-up: key to the marks not given beside the values
[4] = test system: DMS-114
[5] = test system: BT549
[6] = test system: 184B5
[7] = test system: MDCK; set-up: key to the marks not given beside the values
[8] = test system: T47D
[9] = test system: A549
[10] = test system: HEK293
[11] = test system: SJCRH30
[12] = test system: rat brain synaptosomes; test: Receptor binding assays
[13] = SJCRH30 cells, 400 nM, 1 hour at 37° C., 20× objective, Example 15C

With `Cc1cc(C)n2c1C=C1C=CC(CCC(=O)NN)=[N+]1[B-]2(F)F` [BODIPY ®, 4,4-difluoro-5,7-dimethyl-4-bora-3a,4a-diaza-s-indacene-3-propionic acid, hydrazide] as the compound, how does the level of fluorescence [1] read?
Its level of fluorescence is “++”.

What about the level of fluorescence [2] of the same compound?
Its level of fluorescence is “−”.

What about the level of fluorescence [3] of the same compound?
The level of fluorescence was “++”.

And the level of fluorescence [4]?
The level of fluorescence was “−”.

And the level of fluorescence [5]?
The level of fluorescence was “+”.

And the level of fluorescence [6]?
The level of fluorescence was “+”.

What about the level of fluorescence [7] of the same compound?
The level of fluorescence was “++”.

What about the level of fluorescence [8] of the same compound?
Its level of fluorescence is “+”.

What about the level of fluorescence [9] of the same compound?
The level of fluorescence was “−”.

And the level of fluorescence [10]?
Its level of fluorescence is “−”.

And the level of fluorescence [11]?
Its level of fluorescence is “+”.

With `C=C/C=C\CC[C@H]1O[C@H]2CC[C@@]3(C)O[C@H]4[C@@H](O)C[C@@]5(C)O[C@@H](CC/C=C(C)/C(C)=C/C=O)[C@@H](C)C[C@H]5O[C@@H]4C[C@@H]3O[C@@H]2CC[C@@]1(C)O` [brevenal] as the compound, how does the “affinity (binding to rat brain synaptosomes)” value ([12]; parent compound, first value printed for brevenal) read?
The value was 400 to 800 nM.

For `C=C(C=O)C[C@@H]1C[C@H](O)[C@]2(C)O[C@@H]3C[C@@H]4O[C@@H]5C[C@]6(C)O[C@]7(C)CC[C@@H]8O[C@@H]9C[C@]%10(C)O[C@@H]%11C(C)=CC(=O)O[C@H]%11C[C@H]%10O[C@H]9C[C@@H](C)[C@H]8O[C@H]7C[C@H]6O[C@H]5C/C=C\[C@H]4O[C@H]3C[C@H]2O1` [brevetoxin], which “affinity (binding to rat brain synaptosomes)” value [12] is on record?
Its value is 2-10 nm.

`COc1cccc2c1C(=O)c1c(O)c3c(c(O)c1C2=O)C[C@@](O)(C(C)=O)C[C@@H]3O[C@H]1C[C@H](N)[C@H](O)[C@H](C)O1` [Daunorubicin] was tested. Which level of fluorescence [11, 13] did it give?
Its level of fluorescence is “−”.

With `CN(C)c1ccc2c(-c3cc(C(=O)[O-])ccc3C(=O)O)c3ccc(=[N+](C)C)cc-3oc2c1` [Example 6-TAMRA, 6-carboxytetramethylrhodamine] as the compound, how does the level of fluorescence [11, 13] read?
Its level of fluorescence is “−”.
